Assay results as given in patent publication US20220054494A1, “METHODS FOR TREATING BLADDER AND URETHRA DYSFUNCTION AND DISEASE” (University of Pittsburgh - Of the Commonwealth System of …, priority 2019, published 2022).
Entries after “also recorded” stand apart in the source; their conditions may differ.

Legend:
cleaved caspase 3 = assay: Western immunoblotting, cleaved caspase 3; assay type: in vivo, rat; conditions: aged rats; oral 8-AG 5 mg/kg/day, 6 weeks
Protocol: Western immunoblotting: One half of each bladder preparation was homogenized using Lysing Matrix D in a FastPrep 24 instrument (MP Biomedicals, Solon, Ohio) in HBSS (5 mM KCl, 0.3 mM KH2PO4, 138 mM NaCl, 4 mM NaHO3, 0.3 mM Na2HCO3, 0.3 mM Na2HPO4, 5.6 mM glucose and 10 mM Hepes, pH 7.4) containing complete protease inhibitor cocktail (1 tablet/10 ml, ROCHE®, Indianapolis, Ind.)) and phosphatase inhibitor cocktail (SIGMA®, 1:100). After centrifugation (13000 rpm; 15 min at 4° C.), the membrane protein fraction was prepared by suspending the membrane pellets in lysis buffer containing 0.3 M NaCl, 50 mM Tris-HCl (pH 7.6) and 0.5% Triton X-100 and the same concentration of protease inhibitors as above. The suspensions were incubated on ice and centrifuged (13000 rpm; 15 min at 4° C.). The protein concentrations of the combined supernatants were determined using the PIERCE® BCA protein assay (THERMO SCIENTIFIC®, Rockford, Ill.). After denaturation (100° C. for 5 min) in the presence of Laemmli sample buffer, lysate from each sample was separated on a 4-15% TGX Stain-Free SDS-PAGE gel (BIO-RAD® Laboratories, Hercules, Calif.). As a loading control, total protein per sample was determined using Bio-Rad® Stain Free SDS-PAGE gel technology. UV-activated protein fluorescence was imaged on a CHEMIDOC® MP (BIO-RAD®). […] The volume (intensity) of each protein species was determined and normalized to total protein using Image Lab software (BIO-RAD®).

bladder smooth muscle = assay: Transmission electron microscopy of bladder smooth muscle; assay type: in vivo, rat
Description: Transmission electron microscopy (TEM): The other half of each urinary bladder from each group (young, aged, and aged+treatment) were fixed in cold 2.5% glutaraldehyde in 0.01 M PBS. The specimens were rinsed in PBS, post-fixed in 1% osmium tetroxide with 1% potassium ferricyanide, rinsed in PBS, dehydrated through a graded series of ethanol and propylene oxide, and embedded in POLY/BED® 812 (Luft formulations). Semi-thin (300 nm) sections were cut on a LEICA® Reichart Ultracut, stained with 0.5% toluidine blue in 1% sodium borate and examined under the light microscope. Ultrathin sections (65 nm) were stained with uranyl acetate and Reynold's lead citrate and examined on JEOL 1400 transmission electron microscope with a side mount AMT 2k digital camera (Advanced Microscopy Techniques, Danvers, Mass.).
(§1) Transmission electron microscopy (TEM): The other half of each urinary bladder, proximal urethra, or external urethral sphincter from each group (young, aged, aged+8-AG treatment) was fixed in cold 2.5% glutaraldehyde in 0.01 M PBS. The specimens were rinsed in PBS, post-fixed in 1% osmium tetroxide with 1% potassium ferricyanide, rinsed in PBS, dehydrated through a graded series of ethanol and propylene oxide solutions, and embedded in POLY/BED® 812 (Luft formulations). Semi-thin (300 nm) sections were cut on a LEICA® Reichart Ultracut, stained with 0.5% Toluidine Blue in 1% sodium borate and examined under the light microscope. Ultrathin sections (65 nm) were stained with uranyl acetate as well as Reynold's lead citrate and examined on a JEOL 1400 transmission electron microscope with a side mount AMT 2k digital camera (Advanced Microscopy Techniques, Danvers, Mass.).
as §1, with “Half” for “The other half”, “bladder” for “bladder, proximal urethra, or external urethral sphincter”, “borate,” for “borate”, “and” for “as well as”

[1] = Jackson et al., J Pharmacol Exp Ther 2016; cited from earlier work
CYP-treated rats = assay: Images of intact bladders in CYP cystitis model (inflammation and bleeding); assay type: in vivo, rat; conditions: CYP (75 mg/kg i.p.) female Sprague Dawley rats; oral 8-AG 5 mg/kg/day starting one week prior to CYP
Protocol: Animals: Female Sprague Dawley rats were employed in this example (Charles River; Wilmington, Mass.). Three groups of animals were included. Group 1 received an i.p. injection of saline and was used as a control; groups 2 and 3 received an i.p. injection of cyclophosphamide (CYP, SIGMA-ALDRICH®, St Louis, Mo., day 0, 3, 6, sacrifice day 8, 75 mg/kg, i.p.) with group 3 treated with oral 8-AG (5 mg/kg/day; starting one week prior to CYP). CYP induced bladder inflammation and is a well-established pre-clinical model for BPS/IC.

[2] = tested on: deoxycorticosterone/salt-induced hypertension; conditions: chronic oral treatment of rats; Jackson et al. 2016; cited from earlier work
[3] = aged Fisher 344 rats, 8-AG 5 mg kg/day via drinking water, 1 month
[4] = aged rats, oral 8-AG 5 mg/kg/day, 6 weeks

Nc1nc2[nH]c(N)nc2c(=O)[nH]1 [8-AG, 8-Aminoguanine]
EUS cleaved caspase 3 (cleaved caspase 3): restored to a younger state
cleaved caspase 3 in bladder mucosa (cleaved caspase 3): reversed or restored to levels similar to the younger state; also recorded: restored changes similar to a younger state
cleaved caspase 3 in detrusor smooth muscle (cleaved caspase 3): levels similar to the younger state; also recorded: restored these biomarkers to that of a younger state
detrusor smooth muscle morphology (separation and degeneration of cells) (bladder smooth muscle; [3]): restored to a younger state; also recorded: restored to levels similar to the younger state
swelling and disruption of smooth muscle mitochondria (bladder smooth muscle; [3]): restored to a younger state; also recorded: restored to levels similar to the younger state
bladder smooth muscle mitochondrial abnormalities (bladder smooth muscle; aged rats, intravesical 100 μM 8-AG plus 10 μM DEA-NONOate, daily infusion 3-6 weeks): normalized; also recorded: restored
detrusor smooth muscle morphology (structural anomalies) (bladder smooth muscle; [4]): reversed; also recorded: restored to a younger state
swelling and disruption of smooth muscle mitochondria (bladder smooth muscle; [4]): reversed; also recorded: restored to a younger state
diuresis [1]: induce
glucosuria [1]: induce
natriuresis [1]: induce
potassium excretion [1]: reduce
bladder inflammation and bleeding (images of intact bladders) (CYP-treated rats): nearly abolished
development of deoxycorticosterone/salt-induced hypertension [2]: attenuate
